Results as given in the NIST ThermoML archive (doi:10.1016/j.jct.2015.08.036).
± gives the expanded uncertainty stated by the source.

Legend:
[1] = xn = mol fraction of the nth substance listed; details: 100 kPa, Liquid, x2 = 0.25; for electrical conductivity: Alternating current cell with electrodes; for viscosity: Capillary tube (Ostwald / Ubbelohde) method; for mass density: Pycnometric method
[2] = 101.33 kPa, Liquid; for viscosity: Capillary tube (Ostwald / Ubbelohde) method; for mass density: Pycnometric method

CC(N)=O [ethanamide] + N#C[S-].[K+]
[1]
Details	electrical conductivity [S/m]	mass density [kg/m3]	viscosity [mPa·s]
298.15 K	0.117 ± 0.0047	1197.1 ± 2.1	190.16 ± 12
303.15 K	0.205 ± 0.0082	1193.7 ± 2.1	127.31 ± 7.9
308.15 K	0.311 ± 0.012	1190.5 ± 2.1	88.81 ± 5.4
313.15 K	0.429 ± 0.017	1187.7 ± 2.1	63.77 ± 3.9
318.15 K	0.574 ± 0.023	1184.5 ± 2.1	48.11 ± 2.9

CCO [ethanol]
[2]
Details	mass density [kg/m3]	viscosity [mPa·s]
298.15 K	785.2 ± 2	1.096 ± 0.066
303.15 K	781 ± 2	1.003 ± 0.06
308.15 K	776.7 ± 2	0.914 ± 0.055
313.15 K	772.3 ± 2	0.834 ± 0.05
318.15 K	766.3 ± 2	0.764 ± 0.046
